Measured values published in the Kinase Knowledgebase extract (Sharma et al. 2016).
pIC50: −log10 of the molar value.

Target: PIK3CB;PIK3CG;PIK3CD;PIK3CA (human) (UniProt P48736)
Assay: Enzyme Assay

pIC50 | Compound
5.59 | CS(=O)(=O)c1cccc(-n2nc(C(=O)N3CCOCC3)c3c2-c2ccccc2S(=O)(=O)C3)c1
6.19 | O=C(c1nn(-c2cccc(CN3CCS(=O)(=O)CC3)c2)c2c1CS(=O)(=O)c1ccccc1-2)N1CCOCC1
6.34 | COc1cccc2c1S(=O)(=O)Cc1c(C(=O)N3CCOCC3)nn(-c3ccccc3)c1-2
7.28 | O=C(c1nn(C2CCCN(CCn3ccnc3)C2)c2c1CS(=O)(=O)c1ccccc1-2)N1CCOCC1 (configuration not stated)
6.60 | CN1CCN(C(=O)c2cccc(-n3nc(C(=O)N4CCOCC4)c4c3-c3ccccc3S(=O)(=O)C4)c2)CC1
5.76 | Cn1nc(C(=O)N2CCOCC2)c2c1-c1ccccc1S(=O)(=O)C2
7.80 | O=C(c1nn(C2CCCN(CCN3CCOCC3)C2)c2c1CS(=O)(=O)c1c(F)cccc1-2)N1CCOCC1 (configuration not stated)
7.47 | O=C(c1nn([C@H]2CCCN(CCC3CCOCC3)C2)c2c1CS(=O)(=O)c1ccccc1-2)N1CCOCC1
7.14 | O=C(c1nn(C2CCCN(CCN3CC[C@H](F)C3)C2)c2c1CS(=O)(=O)c1ccccc1-2)N1CCOCC1 (some centres not stated)
6.19 | CN(C)S(=O)(=O)c1cccc(-n2nc(C(=O)N3CCOCC3)c3c2-c2ccccc2S(=O)(=O)C3)c1
6.04 | COCCNc1ccc2c(c1)-c1c(c(C(=O)N3CCOCC3)nn1-c1ccccc1)CS2(=O)=O
5.57 | Cc1noc(-c2cccc(-n3nc(C(=O)N4CCOCC4)c4c3-c3ccccc3S(=O)(=O)C4)c2)n1
6.37 | O=C(c1nn(-c2ccccc2)c2c1CS(=O)(=O)c1c(F)cccc1-2)N1CCOCC1
7.10 | O=C(c1nn(C2CCCN(CCn3cccn3)C2)c2c1CS(=O)(=O)c1c(F)cccc1-2)N1CCOCC1 (configuration not stated)
5.72 | O=C(c1nn(C2CCCNCC2)c2c1CS(=O)(=O)c1ccccc1-2)N1CCOCC1 (configuration not stated)
7.96 | O=C(c1nn(C2CCCN(CC3CCOCC3)C2)c2c1CS(=O)(=O)c1ccccc1-2)N1CCOCC1 (configuration not stated)
5.52 | O=C(c1ccc2c(c1)-c1c(c(C(=O)N3CCOCC3)nn1-c1ccccc1)CS2(=O)=O)N1CCOCC1
7.40 | COCCN1CCC[C@H](n2nc(C(=O)N3CCOCC3)c3c2-c2ccccc2S(=O)(=O)C3)C1
7.80 | O=C(c1nn([C@H]2CCCN(CCC3CCOCC3)C2)c2c1CS(=O)(=O)c1ncccc1-2)N1CCOCC1
6.29 | O=C(c1nn(C2CCC(O)CC2)c2c1CS(=O)(=O)c1ccccc1-2)N1CCOCC1 (configuration not stated)
5.38 | COCc1noc(-c2cccc(-n3nc(C(=O)N4CCOCC4)c4c3-c3ccccc3S(=O)(=O)C4)c2)n1
7.89 | O=C(c1nn([C@H]2CCCN(CC3CCOCC3)C2)c2c1CS(=O)(=O)c1ncccc1-2)N1CCOCC1

pIC50 | Compound
5.19 | O=C(c1nn(-c2ccccc2)c2c1CS(=O)(=O)c1ccccc1-2)N1CCOC(CO)C1 (configuration not stated)
6.04 | O=C(c1nn(C2CCC(CN3CCOCC3)CC2)c2c1CS(=O)(=O)c1ccccc1-2)N1CCOCC1 (configuration not stated)
5.56 | Cn1nc(C(=O)N2CCOCC2)c2c1-c1cc([N+](=O)[O-])ccc1S(=O)(=O)C2
6.31 | O=C(c1nn(-c2ccccc2)c2c1CS(=O)(=O)c1c(Br)cccc1-2)N1CCOCC1
6.26 | O=C(c1nn(-c2ccc(CN3CCOCC3)cc2)c2c1CS(=O)(=O)c1ccc(F)cc1-2)N1CCOCC1
7.32 | COC(=O)CCN1CCC[C@H](n2nc(C(=O)N3CCOCC3)c3c2-c2ccccc2S(=O)(=O)C3)C1
6.69 | O=C(c1nn(C2CCCC2)c2c1CS(=O)(=O)c1ccccc1-2)N1CCOCC1
6.98 | O=C(c1nn([C@@H]2CCCN(C3CCOCC3)CC2)c2c1CS(=O)(=O)c1ccccc1-2)N1CCOCC1
6.03 | COCCCN1CCC(n2nc(C(=O)N3CCOCC3)c3c2-c2ccccc2S(=O)(=O)C3)C1 (configuration not stated)
6.17 | O=C(c1nn(C2CCOCC2)c2c1CS(=O)(=O)c1c(Cl)cccc1-2)N1CCOCC1
6.79 | COCCNCc1ccc(-n2nc(C(=O)N3CCOCC3)c3c2-c2ccccc2S(=O)(=O)C3)cc1
5.19 | Cc1ccccc1-c1ccc(-n2nc(C(=O)N3CCOCC3)c3c2-c2ccccc2S(=O)(=O)C3)cc1
6.46 | COC1CCN(Cc2cccc(-n3nc(C(=O)N4CCOCC4)c4c3-c3ccccc3S(=O)(=O)C4)c2)C1 (configuration not stated)
6.95 | COCCN(C)Cc1ccc(-n2nc(C(=O)N3CCOCC3)c3c2-c2ccccc2S(=O)(=O)C3)cc1
5.53 | CN(C)Cc1noc(-c2cccc(-n3nc(C(=O)N4CCOCC4)c4c3-c3ccccc3S(=O)(=O)C4)c2)n1
6.00 | O=C(c1nn(-c2ccc(C3(CN4CCOCC4)CC3)cc2)c2c1CS(=O)(=O)c1ccccc1-2)N1CCOCC1
7.85 | O=C(c1nn([C@H]2CCCN(CCN3CCOCC3)C2)c2c1CS(=O)(=O)c1cc(F)ccc1-2)N1CCOCC1
6.01 | O=C(c1nn(-c2ccccc2)c2c1CS(=O)(=O)c1ccc(F)cc1-2)N1CCOCC1
5.61 | O=C(c1nn(-c2ccccc2)c2c1C(Cc1ccccc1)S(=O)(=O)c1ccccc1-2)N1CCOCC1 (configuration not stated)
5.29 | COCCCC1c2c(C(=O)N3CCOCC3)nn(-c3ccccc3)c2-c2ccccc2S1(=O)=O (configuration not stated)
6.46 | NCc1ccc(-n2nc(C(=O)N3CCOCC3)c3c2-c2ccccc2S(=O)(=O)C3)cc1
5.01 | O=C(c1nn(N2CCOCC2)c2c1C(F)S(=O)(=O)c1ccccc1-2)N1CCOCC1 (configuration not stated)

pIC50 | Compound
7.23 | COc1cccc2c1S(=O)(=O)Cc1c(C(=O)N3CCOCC3)nn([C@H]3CCCN(CCN4CCOCC4)C3)c1-2
7.74 | CN1CCCC(N2CCC[C@H](n3nc(C(=O)N4CCOCC4)c4c3-c3ccccc3S(=O)(=O)C4)C2)C1 (some centres not stated)
6.47 | O=C(c1nn(-c2cccc(-c3cnn(CCN4CCOCC4)c3)c2)c2c1CS(=O)(=O)c1ccccc1-2)N1CCOCC1
6.43 | O=C(c1nn(C2CCN(CCN3CCOCC3)CC2)c2c1CS(=O)(=O)c1ccccc1-2)N1CCOCC1
5.70 | O=C(c1nn(-c2ccccc2F)c2c1CS(=O)(=O)c1ccccc1-2)N1CCOCC1
6.72 | O=C(c1nn(C2CCN(CCN3CCOCC3)C2)c2c1CS(=O)(=O)c1ccccc1-2)N1CCOCC1 (configuration not stated)
5.26 | O=C(c1nn(-c2ccccc2)c2c1NS(=O)(=O)c1ccccc1-2)N1CCOCC1
5.01 | CCCCNc1ccc2c(c1)S(=O)(=O)Cc1c(C(=O)N3CCOCC3)nn(-c3ccccc3)c1-2
5.61 | CCC1c2c(C(=O)N3CCOCC3)nn(-c3ccccc3)c2-c2ccccc2S1(=O)=O (configuration not stated)
6.18 | Cc1nc2ccc(-n3nc(C(=O)N4CCOCC4)c4c3-c3ccccc3S(=O)(=O)C4)cc2s1
7.42 | O=C(c1nn(C2CCCN(CCC3CCOCC3)C2)c2c1CS(=O)(=O)c1c(Cl)cccc1-2)N1CCOCC1 (configuration not stated)
6.49 | O=C(c1nn(C2CCCN(CCF)C2)c2c1CS(=O)(=O)c1ccccc1-2)N1CCOCC1 (configuration not stated)
5.81 | O=C(c1nn(CC2CCCO2)c2c1CS(=O)(=O)c1ccccc1-2)N1CCOCC1 (configuration not stated)
7.02 | COCCN1CCC[C@H](n2nc(C(=O)N3CCOCC3)c3c2-c2cccc(C)c2S(=O)(=O)C3)C1
6.78 | CC(C)CCOC1CCN(Cc2ccc(-n3nc(C(=O)N4CCOCC4)c4c3-c3ccccc3S(=O)(=O)C4)cc2)C1 (configuration not stated)
6.55 | O=C(c1nn(C2CCN(CCC3CCOCC3)C2)c2c1CS(=O)(=O)c1ccccc1-2)N1CCOCC1 (configuration not stated)
6.17 | O=C(c1nn(-c2cccc(N3CCOCC3)c2)c2c1CS(=O)(=O)c1ccccc1-2)N1CCOCC1
8.22 | O=C(c1nn([C@H]2CCCN(CCC3CCOCC3)C2)c2c1CS(=O)(=O)c1c(F)cccc1-2)N1CCOCC1
6.37 | CC1CCC(n2nc(C(=O)N3CCOCC3)c3c2-c2ccccc2S(=O)(=O)C3)CC1 (configuration not stated)
5.53 | O=C(c1nn([C@@H]2CCCN(C3CCCOC3)C2)c2c1CS(=O)(=O)c1ncccc1-2)N1CCOCC1 (some centres not stated)
5.53 | Cn1cc(-n2nc(C(=O)N3CCOCC3)c3c2-c2ccccc2S(=O)(=O)C3)ccc1=O
7.05 | O=C(c1nn(C2CCCN(CCCn3cccc3)C2)c2c1CS(=O)(=O)c1ccccc1-2)N1CCOCC1 (configuration not stated)

pIC50 | Compound
6.08 | CC(C)(C)OC(=O)N1CCCC(n2nc(C(=O)N3CCOCC3)c3c2-c2ccccc2S(=O)(=O)C3)CC1 (configuration not stated)
5.43 | O=C(c1nn([C@@H]2CCN(CCN3CCC(F)CC3)C2)c2c1CS(=O)(=O)c1ccccc1-2)N1CCOCC1
6.74 | O=C(c1cccc(-n2nc(C(=O)N3CCOCC3)c3c2-c2ccccc2S(=O)(=O)C3)c1)N1CCCCC1
7.14 | NCCN1CCC[C@H](n2nc(C(=O)N3CCOCC3)c3c2-c2ccccc2S(=O)(=O)C3)C1
5.76 | Cc1cccc2c1S(=O)(=O)Cc1c(C(=O)N3CCOCC3)nn(-c3ccccc3)c1-2
6.45 | O=C(c1nn(C2CCN(CC3CCOC3)C2)c2c1CS(=O)(=O)c1ccccc1-2)N1CCOCC1 (configuration not stated)
6.09 | CC(C)(C)OC(=O)N1CCC(n2nc(C(=O)N3CCOCC3)c3c2-c2ccccc2S(=O)(=O)C3)CC1
6.63 | O=C(c1nn(C2CN(CCN3CCOCC3)C2)c2c1CS(=O)(=O)c1ccccc1-2)N1CCOCC1
6.55 | O=C(c1nn(-c2cccc(-c3cccnc3)c2)c2c1CS(=O)(=O)c1ccccc1-2)N1CCOCC1
7.24 | O=C(c1nn(C2CCN(CC3CCOC3)C2)c2c1CS(=O)(=O)c1c(F)cccc1-2)N1CCOCC1 (configuration not stated)
7.55 | COc1ccc2c(c1)-c1c(c(C(=O)N3CCOCC3)nn1[C@H]1CCCN(CCN3CCOCC3)C1)CS2(=O)=O
6.47 | O=C(c1nn([C@H]2CCCN(C3CCOCC3)CC2)c2c1CS(=O)(=O)c1ccccc1-2)N1CCOCC1
7.66 | O=C(c1nn([C@H]2CCCN(CCN3CC(F)(F)C3)C2)c2c1CS(=O)(=O)c1c(F)cccc1-2)N1CCOCC1
6.65 | O=C(c1nn(C2CCOCC2)c2c1CS(=O)(=O)c1ccccc1-2)N1CCOCC1
6.18 | O=C(c1nn(CCO)c2c1CS(=O)(=O)c1ccccc1-2)N1CCOCC1
5.45 | CNc1cccc2c1S(=O)(=O)Cc1c(C(=O)N3CCOCC3)nn(-c3ccccc3)c1-2
6.06 | O=C(NC1CCCCC1)N1CCC(n2nc(C(=O)N3CCOCC3)c3c2-c2ccccc2S(=O)(=O)C3)C1 (configuration not stated)
7.24 | CC1CN(Cc2ccc(-n3nc(C(=O)N4CCOCC4)c4c3-c3ccccc3S(=O)(=O)C4)cc2)CC(C)O1 (configuration not stated)
6.43 | O=C(c1nn(-c2ccc(CN3CCCCC3)nc2)c2c1CS(=O)(=O)c1ccccc1-2)N1CCOCC1
6.05 | O=C(c1nn(C2CCOC2)c2c1CS(=O)(=O)c1ccccc1-2)N1CCOCC1 (configuration not stated)
7.60 | O=C(c1nn([C@H]2CCCN(C3CCCNC3)C2)c2c1CS(=O)(=O)c1ccccc1-2)N1CCOCC1 (some centres not stated)
